From publication PMC7754465, “Multiparameter Kinetic Analysis for Covalent Fragment Optimization by Using Quantitative Irreversible Tethering (qIT)” (Chembiochem, 2020)

How the values were obtained:
[1] = biological target: T1, Cdk2(ES) = Cdk2(F80C,C177A) (Homo sapiens, UniProt P24941, C177A/F80C); experiment: quantitative irreversible tethering (qIT): rate of cysteine modification of Cdk2(ES); type: binding; conditions: for kinact/KI at 500 µM: Cdk2(ES) 5 μM, read-out: Cdk2(ES): kobs/[I]; for covalent SAR by REF-based qIT analysis: compared with acrylamide 1 or parent analogue
T1 construct: GST (N, cleaved yes); made in house; host or cells: E. coli Tuner(DE3)
Method: (§1) Figure 2 Comparison of previous and current applications of Quantitative irreversible tethering (qIT). a) Overview of rate determination. A cysteine‐containing biomolecule is treated with covalent fragments under pseudo‐first‐order conditions. Reaction progress is followed by discrete measurement of free cysteine concentration by using the fluorogenic probe CPM, and rate constants (k obs) are derived from exponential regression analysis. b) Comparison of the reactivity profile of each fragment with the POI and GSH typically classes them as unreactive, reactive but non‐selective or reactive and selective. c) Quantification of kinetic POI/GSH selectivity facilitates hit identification. d) The observed rate of reaction between the POI and hit fragment is determined at a range of ligand concentrations by using qIT. Subsequent hyperbolic regression analysis is used to derive K i and k inact to facilitate comprehensive covSAR analysis.
Therefore, we set out to develop novel classes of electrophile sensitive kinase inhibitors using a covalent fragment approach. Accordingly, we screened a 138‐member library of diverse cysteine‐reactive fragments at 500 μM against Cdk2(ES) and GSH by using the qIT platform and monitored the kinetics of cysteine‐modification over 24 hours. […] Using three standard deviations over the geometric mean REF as the statistical cut‐off for defining hit fragments (REF >27.9) yielded two acrylamide fragments, tetrahydroquinoline 1 (REF=81) and pyrimidine S1 (REF=64) for further investigation (Figures 3c and S2). […]
D. Rate determination by qIT
Reaction-plate setup: Each well of a 96-well PCR plate was charged with 60–100 µL of target thiol (GSH or protein, 10 µM) and 4% w/v TCEP-agarose beads in 100 mM phosphate buffer (pH 7.5 or 8) and cooled to 4 °C. Reactions were started by addition of an equal volume of pre-cooled electrophile solution (1 mM, 2% DMSO) in 0.1 M phosphate buffer (final concentra-tion: thiol = 5 µM, electrophile = 0.5 mM, 2% w/v TCEP-agarose beads), with a minimum of 4 wells per plate used as DMSO/thiol only controls. After mixing, TCEP-agarose was pelleted by centrifugation (1,300 rpm, 1 min) and the plate incu-bated at 4 °C. CPM Quench: At a series of time points (typically around 0.25, 0.5, 1, 2, 6, 24, 48, 72 and 120 hours after reac-tion initiation), 3 µL aliquots of each reaction were quenched into a 384-well fluorescence plate (Corning – black, NBS) where each well was charged with 27 µL of CPM solution (1.39 µM) in 100 mM phosphate buffer (pH 7.5) (final concentration: thiol = 0.5 µM, CPM = 1.25 µM). Quenching was typically performed in duplicate and fluorescence plates were incubated at room temperature for 60 minutes before fluorescence intensity (excitation/emission: 384/470 nm) was measured on an EnVisionTM plate reader. Analysis: All analysis was performed using Prism 8.0 software (GraphPad). For each time point, the fluorescence of each reaction was normalized relative Cdk2(ES)/GSH only control = maximum signal, DMSO only = minimum signal. The normalized fluorescence for each reaction was plotted against time. A one phase exponential decay was fitted to each plot (Constraints: Y(0) > 0.8; 0 < plateau = 0), yielding a pseudo first-order rate constant.
Cdk2 mutations were introduced by PCR and cloned into pGEX6P1 Cdk2 (552), a gift from Jonathon Pines (Addgene plasmid # 61845) used to express GST-Cdk2(WT). GST-Cdk2(ES) = GST-Cdk2(F80C,C177A). All constructs were verified by se-quencing. pGEX6P1 cyclin A2 (amino acids 173-432) was generated by PCR and restriction digestion. GST-CAK1 was con-structed by PCR amplification of S.cerevisiae genomic DNA and the product cloned into pKEG-KG. All protein expression was performed using an adapted autoinduction protocol:[8] Plasmids were transformed into E. coli Tuner(DE3) and cultures grown in autoinduction media at 37 °C until OD600 = 0.9. The cultures were then incubated at 18 °C for a further 40 hours before […]

[2] = qIT: rate of reaction with glutathione (intrinsic reactivity); type: physicochemical; conditions: fragment 0.5 mM, glutathione 5 μM
Method: Previously we described a fluorescence‐based platform for screening cysteine‐targeting covalent fragments called quantitative irreversible tethering (qIT). ^[19] The method measures and compares the rate of reactions of individual fragments with the protein‐of‐interest (POI) and GSH (Figure 2a and b).
as §1, with “covSAR analysis. […]” for “covSAR analysis.”

Cdk2(ES) = biological target: T2, Cdk2(ES) (Homo sapiens, UniProt P24941, C177A/F80C); experiment: concentration-dependent qIT with hyperbolic regression (Ki, kinact); type: binding; conditions: for kinact/KI / Ki / kinact: acrylamide 25-500 μM, Cdk2(ES) 5 μM; for Ki / kinact: hyperbolic fit of kobs
T2 construct: GST (N, cleaved yes); made in house; host or cells: E. coli Tuner(DE3)
Method: Next we sought to carry out comprehensive kinetic analysis of the covalent binding to better understand the covSAR trends. Accordingly, the concentration dependency for the rate of reaction between Cdk2(ES) and key acrylamides 1, 6, 9 and 11 were determined using qIT (Figure 7c). To maintain pseudo‐first‐order reaction kinetics and stay within the solubility limits of the fragments, ligands were titrated from 25 to 500 μM. […] Indeed, comparing the binding conformations of the merged (9 and 11) and parent (1 and 6) fragments, we observe a subtle shift in the position of the core scaffolds and the orientation of the acrylamide link that likely explains the jump in potency that resulted from fragment merging. Overall, comparing acrylamides 9 and 11, we observe in a 3.7‐fold increase in k inact/K i and a 4.3‐fold increase in REF, and the consistency between these two orthogonal metrics of covalent fragment potency is encouraging for future applications of qIT to covalent fragment optimization.
H. Intact-protein mass spectrometry
Protein-mass data were obtained on a Waters micromass LC-TOF mass spectrometer in positive ion mode using electrospray ionization. Samples were chromatographed using an Acquity UPLC protein BEH C4 column (2.1 mm × 50 mm, 2.7 µm) with a flow rate of 30 µL/min. The injection volume was 5 µL of protein solution (5 µM) in 30 mM ammonium bicarbonate buffer con-taining 0.5% formic acid and 20% MeOH. The gradient used was 100% mobile phase A (0.1% formic acid in water/MeOH (19:1)) ramping linearly to 90% mobile phase B (0.1% formic acid in MeOH) over 5 minutes. The spectra were acquired from 500 to 2500 Da and deconvolution was performed with MassLynx (Waters), using the maximum entropy algorithm, over a mass range of […] with a mass step of 0.75. […]
Cdk2(WT) or Cdk2(ES) (1 mg) was sequentially incubated with aliquots of CAK1 (3 × 0.05 mg) at r.t. for 4 hours at a time in 1.5 mL of a 30 mM Tris/HCl buffer (pH 7.5) containing 10 mM MgCl2, 10 mM ATP and 3 mM DTT. As CAK1 appeared to be-come rapidly inactivated in the presence of pCdk2, three repetitions were required to drive the reaction to completion. The resulting solution was incubated with 50 µL of glutathione-Sepharose beads and filtered to remove remaining CAK1.
Kinase assays were performed by coupling the conversion of ATP into ADP to the oxidation of NADH (Abs = 340 nm) into NAD+, mediated by lactate dehydrogenase (LDH) and pyruvate kinase (PK). WT, mutant or ligand-conjugated pCdk2 (12.5 or 50 nM) was preincubated with Cyclin A2 (20 nM) in a buffer containing 50 mM Tris/HCl, 10 mM MgCl2, 5 mM DTT, 1 mM phosphoenolpyruvate, 0.24 mM NADH, 10 U mL-1 LDH, 14 U mL-1 PK and 5% DMSO at 37 °C for 30 minutes. Reactions were initiated by addition of 0.5 mM ATP and 0.24 mM substrate peptide (PKTPKKAKKL) and the absorbance at 340 nm was moni-tored for two hours. Assays were conducted at 37 °C and carried out in clear 384-well plates (Nunc) using a SpectraMax i3x plate reader (Molecular Devices) with a final volume of 20 µL in each well. After plotting Abs 340 against time, enzyme velocity was measured from the gradient during the linear phase of product accumulation.
Q. Concentration dependent qIT
The rate of reaction (kobs) for the reaction between each acrylamide (25, 50, 125, 250 and 500 µM) with Cdk2(ES) (5 µM) was determined us qIT (see D. Rate Determination by qIT) in duplicate. The average kobs was plotted against acrylamide concen-tration and hyperbolic regression analysis performed using Prism 8.0 software (GraphPad) to derive kinact and Ki.

[3] = acrylamide 11 compared with acrylamide 9

| SMILES | kinact/KI at 500 µM ([1]; fragment 0.5 mM) | covalent SAR by REF-based qIT analysis [1] | also measured |
| --- | --- | --- | --- |
| C=CC(=O)N1CCn2c1nc1ccccc12 [compound 2] | 0.68 M⁻¹ s⁻¹ |  | GSH: kobs/[I] [2]: 5.34 M⁻¹ s⁻¹ |
| C#CCNC(=O)c1ccc2c(c1)CCCN2C(=O)C=C [compound 5] |  | well tolerated |  |
| C=CC(=O)N1CCN(C(C)=O)c2ccccc21 [compound 7] |  | loss of activity |  |
| C=CC(=O)N1CCN(CC)c2cc(C(=O)OC)ccc21 [compound 9] | 8.48 M⁻¹ s⁻¹ |  | rate of reaction with Cdk2(ES) relative to acrylamide 1 ([1]; qIT): six times faster than acrylamide 1; rate enhancement factor (REF) ([1]; rate with Cdk2(ES) relative to rate with GSH, fragment 0.5 mM, thiol 5 μM): 182; kinact/KI (Cdk2(ES)): 4.76 M⁻¹ s⁻¹; Ki (Cdk2(ES)): 416 µM; kinact (Cdk2(ES)): 0.00198 s⁻¹ |
| C=CC(=O)N1CCN(C)c2cc(C(=O)OC)ccc21 [compound 10] | 1.91 M⁻¹ s⁻¹ | less Cdk2(ES) selective |  |
| C=CC(=O)N1CCN(CC2CC2)c2cc(C(=O)OC)ccc21 [compound 11] | 19.5 M⁻¹ s⁻¹ | significant improvement in REF | fold increase in REF [1, 3]: 4.3 fold; fold increase in kinact/Ki (Cdk2(ES); [3]): 3.7 fold; kinact/KI (Cdk2(ES)): 17.7 M⁻¹ s⁻¹; Ki (Cdk2(ES)): 102 µM; kinact (Cdk2(ES)): 0.00181 s⁻¹ |

Now from value to compound, other results behind:

| kinact/KI at 500 µM ([1]; fragment 0.5 mM) | covalent SAR by REF-based qIT analysis [1] | SMILES | also measured |
| --- | --- | --- | --- |
|  | complete loss of activity | C=CC(=O)N1CCCc2cc(C(=O)O)ccc21 [compound 3] |  |
|  | complete loss of activity | C=CC(=O)N1CCCc2cc(C(N)=O)ccc21 [compound 4] |  |
|  | tenfold loss in REF | C=CC(=O)N1CCc2cc(C(=O)OC)ccc21 [compound 8] |  |
